Data reported in patent publication US11208404B2 (PERENNA PHARMACEUTICALS, INC., priority 2017, dated 2021).
Like-named read-outs stand apart in the source and are kept apart here.

Columns and labels:
ALCAT1 [1] = biological target: T1, ALCAT1 (Homo sapiens (Human), UniProt Q6UWP7); test: In vitro acyltransferase assay for ALCAT1 inhibitors; assay type: biochemical; conditions: for inhibition at 1 µM / % inh @ 1 μM: 1 μM compound; for inhibition at 1 µM / inhibition at 10 µM / % inh @ 1 μM: in vitro enzymatic assay; for IC50: ALCAT1 enzyme activity; for inhibition at 10 µM: 10 μM compound
Procedure, shortened: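 Membrane fractions from Sf9 cells expressing human ALCAT1 incubated 30 min at room temperature with 100 µM MLCL or LPG and 25 µM [14C]acyl-CoA (or 100 µM NBD-CoA) in 50 mM Tris/HCl pH 7.0.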
Target sequence in this assay (Q6UWP7 whole entry): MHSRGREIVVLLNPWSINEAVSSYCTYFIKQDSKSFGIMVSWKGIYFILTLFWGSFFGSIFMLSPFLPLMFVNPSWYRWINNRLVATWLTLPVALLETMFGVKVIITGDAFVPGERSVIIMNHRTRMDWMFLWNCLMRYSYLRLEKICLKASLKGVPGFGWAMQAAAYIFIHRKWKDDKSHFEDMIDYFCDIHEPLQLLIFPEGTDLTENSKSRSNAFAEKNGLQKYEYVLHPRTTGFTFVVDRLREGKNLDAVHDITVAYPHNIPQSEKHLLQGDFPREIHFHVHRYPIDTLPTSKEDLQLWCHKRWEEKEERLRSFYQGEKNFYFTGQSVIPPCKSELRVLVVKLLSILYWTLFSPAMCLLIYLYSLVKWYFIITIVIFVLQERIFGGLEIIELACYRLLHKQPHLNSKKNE

ALCAT1 [2] = biological target: T1, ALCAT1; test: Cell-based assay for ALCAT inhibitor compounds (H9C2 cells); conditions: H9c2, 3 μM compound; H9C2 vector cell line and H9C2 with stable overexpression of ALCAT1
Experimental: The assay was performed on the H9C2 vector cell line and H9C2 with stable overexpression of ALCAT1. Materials used in the protocol were CoA, LPG, compounds, chloroform, methanol, 0.9% KCl, 6-well-plates, 1.5 mL tubes, DMEM, FBS, P/S and PBS.
Cells were seeded in 6-well-plates, 8×10^5 cells/well, and cultured at 37° C. in 5% CO2 overnight.
Cells were washed once with ice-cold PBS, collected in ice-cold PBS and centrifuged at 5000 rpm for 5 min at 4° C. 200 μL of chloroform: methanol (2:1) was added to the cell pellet, which was vortexed to suspend the cells and incubated at RT for 1 hr.
40 μL of 0.9% KCl was added and the sample was vortexed before centrifugation at 10000 rpm for 5 min at RT. The aqueous phase (upper layer) was discarded and the organic phase (lower layer) was loaded to a TLC plate (10 cm×20 cm), 40 μL/sample.
The plates were developed in chloroform: methanol: water (65:25:4) for about 30 min and scanned using a Typhoon Scanner. The bands intensity was analysed using ImageJ and the inhibition activity of the tested compounds was calculated.
Compound inhibitors for ALCAT1 enzyme were analyzed by an in vitro cell-based assay as detailed above.
Target sequence in this assay (Q6UWP7 whole entry, species assumed): as the sequence (Q6UWP7 whole entry) above

[3] = read-out: IC50 values (upper bounds)
[4] = triplicates, GraphPad, read-out: IC50

SMILES | inhibition at 1 µM (ALCAT1 [1]) [%] | IC50 (ALCAT1 [1]; [3]) [nM] | IC50 (ALCAT1 [1]; [4]) [nM] | inhibition at 3 µM (ALCAT1 [2]) [%] | inhibition at 10 µM (ALCAT1 [1]) [%] | % inh @ 1 μM (ALCAT1 [1])
COc1ccc(C)cc1C(=O)Nc1cc(-c2nnc(-c3ccco3)o2)ccc1F [Compound 300, N-(2-Fluoro-5-(5-(furan-2-yl)-1,3,4-oxadiazol-2-yl)phenyl)-2-methoxy-5-methylbenzamide] | 96 | < 100 | 30 | 31 |  | 
COc1ccc(OC(F)(F)F)cc1C(=O)Nc1cccc(-c2nnc(-c3ccco3)o2)c1 [Compound 279, N-(3-(5-(Furan-2-yl)-1,3,4-oxadiazol-2-yl)phenyl)-2-methoxy-5-(trifluoromethoxy)benzamide] | 97 |  | 60 | 7 |  | 
CCOc1ccc(Br)cc1C(=O)Nc1cccc(-c2nnc(-c3ccco3)o2)c1 [Compound 118, 5-Bromo-2-ethoxy-N-(3-(5-(furan-2-yl)-1,3,4-oxadiazol-2-yl)phenyl)benzamide] | 95 | < 100 | 31 | 9 | 100 | 
CCCc1ccc(OC)c(C(=O)Nc2cc(-c3nnc(-c4ccco4)o3)ccc2F)c1 [Compound 281, N-(2-Fluoro-5-(5-(furan-2-yl)-1,3,4-oxadiazol-2-yl)phenyl)-2-methoxy-5-propylbenzamide] | 100 | < 100 | 24 | 65 |  | 97%
CCOc1ccc(CC)cc1C(=O)Nc1cc(-c2nnc(-c3ccco3)o2)ccc1F [Compound 222, 2-Ethoxy-5-ethyl-N-(2-fluoro-5-(5-(furan-2-yl)-1,3,4-oxadiazol-2-yl)phenyl)benzamide] | 100 | < 35 | 8 | 85 |  | 97%
COc1c(Br)cc(Br)cc1C(=O)Nc1cccc(-c2nnc(-c3ccco3)o2)c1 [Compound 168, 3,5-Dibromo-N-(3-(5-(furan-2-yl)-1,3,4-oxadiazol-2-yl)phenyl)-2-methoxybenzamide] | 100 |  | 48 | 27 | 100 | 
CCCOc1ccc(Cl)cc1C(=O)Nc1cc(-c2nnc(-c3ccco3)o2)ccc1F [Compound 209, 5-Chloro-N-(2-fluoro-5-(5-(furan-2-yl)-1,3,4-oxadiazol-2-yl)phenyl)-2-propoxybenzamide] | 100 | < 100 | 25 | 37 | 100 | 
CCOc1ccc(C)cc1C(=O)Nc1cccc(-c2nnc(-c3ccco3)o2)c1 [Compound 218, 2-Ethoxy-N-(3-(5-(furan-2-yl)-1,3,4-oxadiazol-2-yl)phenyl)-5-methylbenzamide] | 99 |  | 67 |  |  | 98%
CCOc1ccccc1C(=O)Nc1cc(-c2nnc(-c3ccco3)o2)ccc1F [Compound 215, 2-Ethoxy-N-(2-fluoro-5-(5-(furan-2-yl)-1,3,4-oxadiazol-2-yl)phenyl)benzamide] | 100 | < 100 | 26 |  |  | 100/100%
O=C(Nc1cc(F)cc(-c2nnc(-c3ccco3)o2)c1)c1ccccc1F [Compound 130] | 50 |  |  |  |  | 57%
COc1ccc(C)cc1C(=O)Nc1cccc(-c2nnc(-c3ccco3)o2)c1 [Compound 197, N-(3-(5-(Furan-2-yl)-1,3,4-oxadiazol-2-yl)phenyl)-2-methoxy-5-methylbenzamide] | 80 |  | 79 |  | 97 | 
CCCOc1ccc(F)cc1C(=O)Nc1cccc(-c2nnc(-c3ccco3)o2)c1 [Compound 126] | 83 |  | 110 |  | 100 | 
O=C(Nc1ccc(F)c(-c2nnc(-c3ccco3)o2)c1)c1ccccc1F [Compound 28] |  |  |  |  | 51 | 
O=C(Nc1cccc(-c2nnc(-c3ccco3)o2)c1)c1cccc(Br)c1F [Compound 191] | 82 |  | 330 |  | 100 | 
O=C(Nc1cc(Cl)cc(-c2nnc(-c3ccco3)o2)c1)c1ccccc1F [Compound 295] | 37 |  |  |  |  | 
CCCCOc1ccccc1C(=O)Nc1cc(-c2nnc(-c3ccco3)o2)ccc1F [Compound 213] | 56 |  |  |  |  | 64%
O=C(Nc1cccc(-c2nnc(-c3ccco3)o2)c1)c1ccco1 [Compound 100] | 3 |  |  |  | 7 | 
O=C(Nc1cccc(-c2nnc(-c3ccco3)o2)c1)c1cccc([N+](=O)[O-])c1 [Compound 87] | 29 |  |  |  | 62 | 

Other lines, results leading:

inhibition at 1 µM (ALCAT1 [1]) [%] | IC50 (ALCAT1 [1]; [3]) [nM] | IC50 (ALCAT1 [1]; [4]) [nM] | inhibition at 3 µM (ALCAT1 [2]) [%] | inhibition at 10 µM (ALCAT1 [1]) [%] | % inh @ 1 μM (ALCAT1 [1]) | SMILES
94 |  | 64 | 19 |  |  | O=C(Nc1cc(-c2nnc(-c3ccco3)o2)ccc1F)c1ccccc1OCC(F)(F)F [Compound 313, N-(2-Fluoro-5-(5-(furan-2-yl)-1,3,4-oxadiazol-2-yl)phenyl)-2-(2,2,2-trifluoroethoxy)benzamide]
98 |  | 38 | 3 |  |  | CCOc1ccc(CC)cc1C(=O)Nc1cc(-c2nnc(-c3ccco3)o2)ccn1 [Compound 373, 2-Ethoxy-5-ethyl-N-(4-(5-(furan-2-yl)-1,3,4-oxadiazol-2-yl)pyridin-2-yl)benzamide]
96 | < 100 | 19 | 52 |  |  | O=C(Nc1cc(-c2nnc(-c3ccco3)o2)ccc1F)c1cc(Cl)ccc1OCC(F)F [Compound 317, 5-Chloro-2-(2,2-difluoroethoxy)-N-(2-fluoro-5-(5-(furan-2-yl)-1,3,4-oxadiazol-2-yl)phenyl)benzamide]
98 | < 100 | 20 | 31 |  | 96% | O=C(Nc1cc(-c2nnc(-c3ccco3)o2)ccc1F)c1cc(Cl)ccc1OC(F)(F)F [Compound 304, 5-Chloro-N-(2-fluoro-5-(5-(furan-2-yl)-1,3,4-oxadiazol-2-yl)phenyl)-2-(trifluoromethoxy)benzamide]
100 | < 100 | 21 | 34 |  |  | O=C(Nc1cc(-c2nnc(-c3ccco3)o2)ccc1F)c1cc(Cl)ccc1OC(F)F [Compound 305, 5-Chloro-2-(difluoromethoxy)-N-(2-fluoro-5-(5-(furan-2-yl)-1,3,4-oxadiazol-2-yl)phenyl)benzamide]
94 |  | 38 | 75 |  | 92% | Cc1ccc(OCCF)c(C(=O)Nc2cc(-c3nnc(-c4ccco4)o3)ccc2F)c1 [Compound 321, N-(2-Fluoro-5-(5-(furan-2-yl)-1,3,4-oxadiazol-2-yl)phenyl)-2-(2-fluoroethoxy)-5-methylbenzamide]
96 |  | 46 | 12 |  |  | O=C(Nc1cc(-c2nnc(-c3ccco3)o2)ccc1F)c1cc(F)ccc1OCC(F)(F)F [Compound 319, 5-Fluoro-N-(2-fluoro-5-(5-(furan-2-yl)-1,3,4-oxadiazol-2-yl)phenyl)-2-(2,2,2-trifluoroethoxy)benzamide]
41 |  |  |  |  |  | COc1cc(C(=O)Nc2cccc(-c3nnc(-c4ccco4)o3)c2)cc([N+](=O)[O-])c1 [Compound 342]
